Values belong to the molecule of their own block, whether it stands above or below them.
Key:
Assay type in all cases: physicochemical
[1] = Compatibility between waxes and alkyl ketal esters (melt, cool to room temperature)
Description: Compatibility between various waxes and the alkyl ketal esters was first determined as detailed below. Table 10 below details the fragrant formulations for 10 different candles (Examples 116-125) that contain the fragrant composition.
Beeswax and Et-LGK were weighed into a vessel in a 50/50 weight ratio and heated to 80° C. to form a uniform molten mixture.
Gulf Wax brand of household paraffin wax for canning and candlemaking (distributed by Royal Oak Enterprises) was used in these experiments.

[2] = Miscibility of alkyl ketal esters with organic compounds; conditions: parts of the organic compound in 80 parts of the alkyl ketal ester; organic compounds as listed in the block
Description: (§1) Unless stated otherwise, miscibility is assessed at 25° C.

[3] = Miscibility of alkyl ketal esters with water; conditions: for miscible in water to the extent of: parts of ester, balance to 100 parts is water (1 per 99, 2.5 in 97.5, 5 per 95); for miscibility with water: miscibility assessed at 25° C unless stated otherwise
Description: as §1

[4] = Dissolution of vanillin in alkyl ketal esters
Description: […] […] Dissolution is much quicker at 80° C.
Vanillin was dissolved at 25% solids by weight in Et-LPK with slight heating (80° C.).

[5] = Compatibility between waxes and alkyl ketal esters (melt, cool to room temperature); conditions: 25/75 weight ratio of Et-LGK to beeswax, 80° C, cooled
[6] = NatureWax C-3 / ester 90/10 weight ratio, 80° C, cooled
[7] = beeswax / ester 50/50 weight ratio, melted at 80° C, cooled to room temperature
[8] = candelilla wax / ester 50/50 weight ratio, 120° C, cooled
[9] = carnauba wax / ester 50/50 weight ratio, 120° C, cooled
[10] = paraffin wax / ester 75/25 weight ratio, 80° C, cooled to room temperature
[11] = NatureWax C-1 / ester 90/10 weight ratio, 80° C, cooled
[12] = NatureWax P-1 / ester 75/25 weight ratio, 80° C, cooled
[13] = paraffin wax / ester 50/50 weight ratio, 80° C, cooled to room temperature
[14] = stearic acid / ester 50/50 weight ratio, 80° C, cooled to room temperature
[15] = vanillin at 10% solids by weight in the ester, room temperature

SMILES: CCCCOC(=O)CCC1(C)OCC(CO)O1 (stereo not shown) [Bu-LGK, glycerol ketal of butyl levulinate]
- layers upon cooling ([1]; NatureWax C-1 / ester 50/50 weight ratio, 80° C, cooled): single homogenous wax layer
- layers upon cooling [1, 6]: single homogenous wax layer
- layers upon cooling ([1]; NatureWax P-1 / ester 50/50 weight ratio, 80° C, cooled): single homogenous wax layer
- layers upon cooling [1, 7]: single homogenous wax layer
- layers upon cooling [1, 8]: single homogenous wax layer
- layers upon cooling [1, 9]: single homogenous wax layer
- layers upon cooling [1, 10]: Two layers formed
- dissolves or is miscible with organic compounds to the extent of [2]: at least 20 parts
- miscible in water to the extent of [3]: 1 parts
- dissolution of vanillin ([4]; vanillin at 25% solids by weight in the ester, room temperature): initially appeared to be insoluble but over the course of five days, the vanillin dissolved, resulting in a clear uniform mixture

SMILES: CCOC(=O)CC1(C)OCC(CO)O1 (stereo not shown) [Et-AcAcGK]
- miscibility with water [3]: miscible with water in all proportions

SMILES: CCCCOC(=O)CCC1(C)OCC(C)O1 (stereo not shown) [n-butyl-LPK]
- dissolves or is miscible with organic compounds to the extent of [2]: at least 20 parts

SMILES: COC(=O)CCC1(C)OCC(CO)O1 (stereo not shown) [methyl-LGK]
- miscibility with water [3]: miscible with water in all proportions

SMILES: COC(=O)CC1(C)OCC(CO)O1 (stereo not shown) [Me-AcAcGK]
- miscibility with water [3]: miscible with water in all proportions

SMILES: CCOC(=O)CCC1(C)OCC(C)O1 (stereo not shown) [Et-LPK, propylene glycol ketal of ethyl levulinate]
- layers upon cooling [1, 11]: single homogenous wax layer
- layers upon cooling [1, 6]: single homogenous wax layer
- layers upon cooling [1, 12]: single homogenous wax layer
- layers upon cooling [1, 7]: single homogenous wax layer
- layers upon cooling [1, 8]: single homogenous wax layer
- layers upon cooling [1, 9]: single homogenous wax layer
- layers upon cooling [1, 13]: single homogenous wax layer
- layers upon cooling [1, 10]: single homogenous wax layer
- layers upon cooling [1, 14]: single homogenous wax layer
- dissolves or is miscible with organic compounds to the extent of [2]: at least 20 parts
- miscible in water to the extent of [3]: 2.5 parts
- dissolution of vanillin [4, 15]: clear uniform mixture
- dissolution of vanillin ([4]; vanillin at 25% solids by weight in the ester, slight heating (80° C)): clear uniform solutions hot and stayed as a clear uniform mixture at room temperature initially
- precipitation of vanillin on standing ([4]; vanillin at 25% solids by weight, dissolved at 80° C, then room temperature): Within an hour, signs of precipitation at room temperature appeared

Other lines, results leading:

- miscible in water to the extent of [3]: 5 parts
SMILES: CCOC(=O)CCC1(C)OCCO1 [ethyl-LEK]

- miscible in water to the extent of [3]: 1 parts
SMILES: CCCOC(=O)CCC1(C)OCC(CO)O1 (stereo not shown) [n-propyl-LGK]

- layers upon cooling ([1]; 25/75 Et-LGK to stearic acid by weight, 80° C, cooled): single homogenous wax layer
- layers upon cooling [1, 11]: single homogenous wax layer
- layers upon cooling [1, 6]: single homogenous soft wax layer
- layers upon cooling [1, 12]: single homogenous wax layer
- layers upon cooling [1, 7]: Two layers formed
- layers upon cooling ([1]; candelilla wax / ester 75/25 weight ratio, 120° C, cooled to room temperature): Two layers formed
- layers upon cooling ([1]; candelilla wax / ester 90/10 weight ratio, 120° C, cooled): single homogenous wax layer
- layers upon cooling [1, 9]: Two layers formed
- layers upon cooling ([1]; carnauba wax / ester 75/25 weight ratio, 120° C, cooled): single homogenous wax layer
- layers upon cooling [1, 13]: Two layers formed
- layers upon cooling ([1]; paraffin wax / ester 90/10 weight ratio, 80° C, cooled to room temperature): single homogenous wax layer
- layers upon cooling [1, 14]: Two layers formed
- dissolves or is miscible with organic compounds to the extent of [2]: at least 20 parts
- miscibility with water [3]: miscible in water in all proportions
- dissolution of vanillin [4, 15]: clear uniform mixture
- layers upon cooling [5]: single homogenous wax layer
SMILES: CCOC(=O)CCC1(C)OCC(CO)O1 (stereo not shown) [Et-LGK, glycerol ketal of ethyl levulinate]

Reference: patent US9301910B2, “Fragrant formulations, methods of manufacture thereof and articles comprising the same” (GFBiochemicals Limited, priority 2010, dated 2016)
